Series [1] deals with trophozoites of P. falciparum, strain ItG2G1. The series is described as follows: Antimalarial activity (Table 1), [3H]hypoxanthine incorporation. Particulars: Plasmodium falciparum. In kind it is cell-based. The method, then: (§1) f. Parasite cultures. The P. falciparum strains used in the experiments: ItG2G1 (Brazil, provided by Dr. L. H. Miller), D6 (W. African, provided by Dr. A. J. M. Oduola) FCR-3 (Gambian, provided by Dr. J. B. Jensen) and W2 (Indochina, provided by Dr. A. J. M. Oduola), were grown in culture flasks of human erythrocytes by a modified version of Trager and Jensen's method as described by Silfen et al. ((1988) Biochem. Pharmacol. 37: 4269-4276)).
(§2) g. Bioassay of iron carrier antimalarial activity. The antimalarial activity was assayed by adding the compounds from concentrated stock solutions (in DMSO) to microcultures (24 wells, Costar) containing infected red cells (2.5% hematocrit and 2% parasitemia). The cultures were usually synchronized (4-7 hrs. windows) by incubation in 300 mM Ala, 10 mM TRIS-Cl in conjunction with gelatin flotation and used either at the trophozoite (1-2% parasitemia) or at the ring stage (4-6% parasitemia) of the erythrocyctic cycle. After the indicated time of incubation with drug and either previous to or after washing 3 times with 100 volumes growth medium, the cells were supplemented with 6 μCi of either [^3 H]-hypoxanthine or [^3 H]-Ileu (Amersham, England) per well and parasite growth assessed after 24-48 hours by harvesting the labelled cells onto glass-fiber filters (Tamar, Inc. Jerusalem) and counting of the radioactivity.
The antimalarial activity of the different chelators was initially evaluated on cultures of trophozoites which were exposed for 24 hours to different concentrations of chelators. Following that period, [^3 H]-hypoxanthine or [^3 H]-Ileu were added and 24 hours later the parasitemia and incorporation of label into macromolecular material was determined.

For series [2], the system named is trophozoites of P. falciparum. The experiment in a line: Antimalarial activity (Table 2), [3H]-hypoxanthine incorporation. Particulars: 40 h. Format: cell-based, Plasmodium falciparum. As to the method:
as §2, with “radioactivity. […]” for “radioactivity.”

Series [3] relates to Plasmodium falciparum strain D6. The series is described as follows: Antimalarial activity in various strains, D6. In kind it is cell-based. The method, then:
as §1
(§3) g. Bioassay of iron carrier antimalarial activity. […] After the indicated time of incubation with drug and either previous to or after washing 3 times with 100 volumes growth medium, the cells were supplemented with 6 μCi of either [^3 H]-hypoxanthine or [^3 H]-Ileu (Amersham, England) per well and parasite growth assessed after 24-48 hours by harvesting the labelled cells onto glass-fiber filters (Tamar, Inc. Jerusalem) and counting of the radioactivity.
(§4) It is clear that the efficacy of the agents is primarily correlated with the respective octanol/saline partition coefficient or the hydrophobicity of the amino acid side chain, and only secondarily with their iron binding efficiencies, which are relatively high for all the agents. […] The antimalarial activity of the various chelators was assessed over a 24 hr period of exposure on infected cells (trophozoite stage of P. falciparum) as described in method (g). […]

For series [4], the system named is Plasmodium falciparum strain FCR3. The experiment in a line: Antimalarial activity in various strains, FCR3. Format: cell-based. The method, then:
as §1, §3, §4

Series [5] deals with synchronized cultures of rings (P. falciparum). The experiment in a line: Time dependence of parasite growth inhibition, rings. In kind it is cell-based, Plasmodium falciparum. As to conditions: for Inhibitory effect, in words: rings; for inhibition at 10 µg/mL: Plasmodium falciparum, read-out: Inhibition of parasite growth. As to the method:
as §2
To study the growth stage of parasites most sensitive to inhibition, the time dependence of the inhibitory effect of SF1-ileu (10 μg/ml) vis a vis that of DFO (80 μg/ml) was assessed both on synchronized cultures of rings and of cultures of trophozoites. The cells were exposed to the […], the cells were washed from extracellular drug and assessed for [^3 H]-hypoxanthine incorporation after the last sample completed the 4 hours incubation period with drug.

A short description of series [6]: Extraction of iron from aqueous FeCl3/citrate into chloroform. Format: physicochemical. Particulars: 0.3 mM in chloroform vs 0.3 mM FeCl3, 0.3 mM citric acid, 40 mM TRIS, pH 6.9, overnight. As to the method:
d. Extractions were performed by overnight equilibration of 0.3 mM chloroform solutions of reversed siderophore with aqueous solutions of 0.3 mM FeCl3, 0.3 mM citric acid, 40 mM TRIS, pH 6.9. The amount of iron taken up into the organic phase was determined by the absorption of the iron+complex at 430 nm. No iron uptake into chloroform solutions devoid of RSF was observed by ion chromatography.

The next series concerns uninfected red cells. The series is described as follows: Pre-incubation of uninfected red cells with chelator, effect on parasite growth. Format: cell-based, human. The method, then: h. The effect of pre-incubation of red cells or plasma with drug on parasite growth. Red cell suspensions (5% hematocrit) in RPMI 1640 medium pH 7.4 (no plasma) were treated for 24-48 hrs with either 100 μg/ml of chelator or DMSO alone (<1% final concentration) in culture conditions. Chelator was removed by washing the cells 4 times with RPMI followed by 1 hour incubation at 37° C. Parasite growth was assayed after addition of gelatin enriched schizonts (>90%) as described above. Human plasma (2 ml) from O+ donors was adjusted to either pH 5 with MES (to enhance chelating efficiency) or pH 7.4 (with TRIS base), and treated for 18 hrs with 100 μg/ml chelators or with DMSO. The plasma was subsequently dialyzed for 24 hours against 800 ml 0.1% bovine serum albumin (BSA), and 10 mM glucose in phosphate buffered saline (PBS) pH 7.4, followed by an additional 24 hour dialysis against 400 ml of the same buffer and supplemented to the medium for parasite growth assays.
Plasma and uninfected red cells were separately treated with relatively high concentrations of chelators (100 μg/ml) in order to evaluate whether the site of action of the lipophilic chelators was associated with components of the plasma and/or the uninfected red cell.

In brackets after ≈: the same amount, converted by molar mass. Read-outs that look alike come from different tables or passages of the source.

A word on the IC50: it is the concentration that gives 50% inhibition. In the case of `CC(=O)N(O)CCCCCNC(=O)CCC(=O)N(O)CCCCCNC(=O)CCC(=O)N(O)CCCCCN` [DFO, desferrioxamine B, reference compound], the IC50 in series [1] (48 hours exposure, strain ItG2G1 trophozoites, read-out: IC50) was 30 mg/L (≈ 53.5 µM); in series [3] (strain D6 (chloroquine-sensitive), 48 hour exposure, trophozoites, read-out: IC50), 40 ± 9 mg/L (≈ 71.3 µM); in series [4] (strain FCR3 (chloroquine-resistant), 48 hour exposure, trophozoites, read-out: IC50), 32 ± 7 mg/L (≈ 57.1 µM). Moreover, the “IC50 (c)” value in series [2] was 40 ± 8 µM. For the same compound, the “Inhibitory effect, in words” value is reported as “inhibitory effects were dismal” in series [5] (DFO 80 μg/ml, 6 hrs exposure) and “substantial inhibition” in series [5] (DFO 80 μg/ml, 20 hrs exposure).
A word on the inhibition: it is how much of the control response was suppressed. On to `CC[C@H](C)[C@H](NC(=O)CCOCC(CC)(COCCC(=O)N[C@H](C(=O)N(C)O)[C@@H](C)CC)COCCC(=O)N[C@H](C(=O)N(C)O)[C@@H](C)CC)C(=O)N(C)O` [SF1-ileu], for which the Extraction efficiency in series [6] stood at 52. Besides, the IC50 in series [1] (48 h) turned out to be 2 mg/L (≈ 2.57 µM); in series [2] (Plasmodium falciparum, read-out: IC50 (c)) it was 3 ± 2 µM; in series [3] (D6, 48 h) it was 6 ± 2 mg/L (≈ 7.72 µM); in series [4] (FCR3, 48 h) it was 3 ± 1 mg/L (≈ 3.86 µM). The “Ability of red cells to support parasite growth after pre-treatment” value in the series with uninfected red cells (24 hour exposure, 40 fold IC50, then washing) was “no significant effect”. Also, the “Effect on ability of uninfected cells to support parasite growth” value in the series on uninfected red cells (general statement) is recorded as “does not affect irreversibly the ability of uninfected cells to support parasite growth”. In addition, the inhibition at 10 µg/mL in series [5] (2 h) was roughly 70%; in series [5] (20 h) it was greater than 95%. Besides, the “Inhibitory effect, in words” value in series [5] (0.5 hr incubation, SF1-ileu 10 μg/ml) was “major inhibitory effects”.

Source of the values: patent publication US5430058A, “Pharmaceutical compositions comprising hydroxamate derivatives for iron removal” (Yeda Research and Development Co. Ltd., priority 1993, dated 1995).
